The values that follow are results of earlier work, collected in patent US6646013B1, “Nutrient formulations for disease reduction” (Nutri-Logics, priority 1999, dated 2003).

For series [1] the following is noted: saturable absorption.
For series [2] the following is noted: animal fertility studies.
For series [3], the system named is rats. The note with it: oral doses.
Series [4] relates to mice. The note with it: oral doses.
For series [5] the following is noted: circulation.
Experiment in series [6]: not given
This is another data set of the same source.

Experiment in series [7]: not given
The source holds these as a separate data set.

The subject of series [8] is colorectal cancer. The following applies: meta-analysis of twenty-four studies, calcium intake.
The conditions of series [9]: gastrointestinal side effects (distress, bloating).
The subject of series [10] is colon carcinogenesis. The note with it: rat colon model for carcinogenesis.
Series [11] relates to colon cancer. The following applies: patients with chronic ulcerative colitis.
Experiment in series [12]: not given
The source holds these as a separate data set.

Experiment in series [13]: not given
The source holds these as a separate data set.

For series [14] the following is noted: normal parathyroid function and vitamin D sensitivity.
The subject of series [15] is prostate cancer. The following applies: vitamin E intake [37].
The test system of series [16] is vitamin K activity. The note with it: vitamin K-deficient patients.
Experiment in series [17]: not given
This is another data set of the same source.

Like-named read-outs stand apart in the source and are kept apart here. Where only a bound is given, the exact number is not on record here.

Regarding `O=C1O[C@H]([C@@H](O)CO)C(O)=C1O` [Ascorbate, ascorbic acid], the “concentration at which absorption is half-maximal” value in series [1] is listed as “about 1 mM”.
In the case of `CC(=O)N[C@@H](CS)C(=O)O` [NAC, N-Acetyl-l-cysteine], in series [2], the “dose with no adverse effects reported” value was “up to 250 mg/kg” and the “dose with no teratogenic effects observed” value is no more than 2000 mg/kg. The LD50 (in general, the dose at which mortality reaches 50%) in [3] is “greater than 6000 mg/kg”. In addition, in [4], the LD50 is listed as 7888 mg/kg. For the setting “estimated”, the “plasma half-life of free NAC” value is reported as “about 2 hours”. The “time to peak plasma NAC concentration” value (oral administration) is “less than one”. Further, the “bioavailability of the intact NAC molecule” value (oral, estimated) is reported as 4-10%. Also, the “time post-administration at which virtually no NAC is detected” value (plasma) is 10 to 12 h.
With `Cc1ncc(COP(=O)(O)O)c(C=O)c1O` [Pyridoxal phosphate, pyridoxal 5′ phosphate], the “share of circulating vitamin B6” value in series [5] is “at least 60%”.
Turning to `O=C(O)c1ccccc1O` [Salicylate, salicylic acid], in series [6] (oral), the “time to peak plasma concentrations” value is no more than 2 h and the “time to significant plasma concentrations” value was no more than 30 min. Also, in series [6] (urine), the “excreted in the urine as acyl glucuronide” value is 5%, the “excreted in the urine as free salicylic acid” value is given as 10%, the “excreted in the urine as salicylic phenolic glucuronide” value is reported as 10% and the “excreted in the urine as salicyluric acid” value is recorded as 75%.
As to `[Ca]` [calcium], the “fraction complexed to anionic buffers” value in series [7] (human plasma) is recorded as “about 10%”. Moreover, the “fraction bound to plasma proteins” value in [7] (human plasma, primarily albumin) is reported as “approximately 45%”. The “fraction of filtered Ca2+ reabsorbed” value in series [7] (kidney) was “approximately 98%”. The “summary relative risk of colorectal cancer” value in series [8] is 0.89 (0.79-1.01). The “supplement dose above which generally not well tolerated” value in series [9] is on record as “exceeding 800 mg per day”.
In the case of `COc1cc(/C=C/C(=O)CC(=O)/C=C/c2ccc(O)c(OC)c2)ccc1O` [curcumin, (E,E)-1,7-Bis(4-hydroxy-3-methoxyphenyl)-1,6-heptadiene-3,5-dione], the “efficacy of pure form (>98%) versus food-grade curcumin” value in series [10] is listed as “equally effective”.
Take `Nc1nc2ncc(CNc3ccc(C(=O)N[C@@H](CCC(=O)O)C(=O)O)cc3)nc2c(=O)[nH]1` [folic acid, N-[**4-[**[**(2-Amino-1,4-dihydro-4-oxo-6-pteridinyl)methyl]amino]benzoyl]-L-glutamic Acid]: in [11], the “lower incidence of colon cancer versus no supplementation” value is on record as 62%. Moreover, the results for the “dose with no adverse human effects” value in [12] (duration not stated) and in series [12] (for 4 months) were 15 mg/day and 10 mg/day, respectively.
With `Cc1ncc(CO)c(CO)c1O` [vitamin B6, pyridoxine], in series [13] (adults), the “dose at which symptoms of dependency were noted” value was 200 mg daily. For the same compound, the “dose at which neurotoxicity may develop” value in series [13] (prolonged ingestion) was 200 mg per day.
Consider `C=C1CC[C@H](O)C/C1=C/C=C1\CCC[C@]2(C)[C@@H]([C@H](C)CCCC(C)C)CC[C@@H]12` [vitamin D, (3β,5Z,7E)-9,10-Secocholesta-5,7,10(19)-triene-3-ol], for which, in series [14], the “continuous daily ingestion causing signs of hypervitaminosis” value is ≥ 50,000 units daily.
For `Cc1c(C)c2c(c(C)c1O)CCC(C)(CCCC(C)CCCC(C)CCCC(C)C)O2` (stereo not shown) [vitamin E, 3,4-Dihydro-2,5,7,8-tetramethyl-2-(4,8,12-trimethyltridecyl)-2H-1-benzopyran-6-ol], the “decrease in the incidence of prostate cancer” value in series [15] was 34%. For the same compound, in series [16], the “prolonged daily intake after which bleeding is a concern” value is recorded as greater than 800 IU.
As to Cyanocobalamin [vitamin B12], the “share of the body's stores in the liver” value in series [17] was no more than 90%.
